Assay results taken from the NIST ThermoML archive (doi:10.1016/j.fluid.2010.02.020).
“And” between values parts separate entries of the source, which are not always exact repeats. Equal entries are not always repeated. Numbers after ± are expanded uncertainties.

Conditions: for mass density: 101.33 kPa, Liquid, Vibrating tube method; for surface tension liquid-gas: Pendant drop shape

CCn1cc[n+](C)c1.O=S(=O)([N-]S(=O)(=O)C(F)(F)F)C(F)(F)F
Conditions	mass density [kg/m3]	surface tension liquid-gas
293.15 K	1525 ± 6.1	–
303.15 K	1515.1 ± 6.1	–
313 K	–	35.2 ± 1.1 mN/m
313.15 K	1505.3 ± 6.1	–
313.2 K	–	33.8 ± 1.1 mN/m and 34.7 ± 1.1 mN/m
323.15 K	1495.5 ± 6	–
332.7 K	–	34.2 ± 1.1 mN/m
333.15 K	1485.8 ± 6	–
333.3 K	–	33.6 ± 1.1 mN/m
343.15 K	1476.1 ± 5.9	–
352.4 K	–	33.4 ± 1.1 mN/m
353.15 K	1466.4 ± 5.9	–
353.4 K	–	33.4 ± 1.1 mN/m
363.15 K	1456.7 ± 5.9	–
372.7 K	–	32.5 ± 1.1 mN/m
373.15 K	1447 ± 5.8	–
373.2 K	–	31.5 ± 1.1 mN/m
383.15 K	1437.2 ± 5.8	–
392.9 K	–	31.4 ± 1.1 mN/m
393.15 K	1427.4 ± 5.7	–
393.2 K	–	31.1 ± 1.1 mN/m
403.15 K	1417.5 ± 5.7	–
412.8 K	–	30.5 ± 1.1 mN/m
413.1 K	–	30.1 ± 1.1 mN/m
413.15 K	1407.5 ± 5.7	–
423.15 K	1397.5 ± 5.6	–
432.5 K	–	29.6 ± 1.1 mN/m
433.15 K	1387.3 ± 5.6	–
443.15 K	1377 ± 5.5	–
452.7 K	–	27.3 ± 1.4 mN/m
453 K	–	28.7 ± 1.4 mN/m
453.15 K	1366.6 ± 5.5	–
463.15 K	1356 ± 5.4	–
472.5 K	–	25.7 ± 1 mN/m
472.7 K	–	26.4 ± 1 mN/m
473.15 K	1345.2 ± 5.4	–
512.6 K	–	24.6 ± 1 mN/m
532.2 K	–	23.7 ± 1 mN/m

CCCCCCCCC[n+]1ccn(C)c1.O=S(=O)([N-]S(=O)(=O)C(F)(F)F)C(F)(F)F
Conditions	mass density [kg/m3]
293.15 K	1303.1 ± 5.4
303.15 K	1294.2 ± 5.4
313.15 K	1285.5 ± 5.3
323.15 K	1276.8 ± 5.3
333.15 K	1268.3 ± 5.2
343.15 K	1259.7 ± 5.2
353.15 K	1251.3 ± 5.2
363.15 K	1242.8 ± 5.1
373.15 K	1234.3 ± 5.1
383.15 K	1225.8 ± 5.1
393.15 K	1217.4 ± 5
403.15 K	1208.8 ± 5
413.15 K	1200.3 ± 4.9
423.15 K	1191.8 ± 4.9
433.15 K	1183.2 ± 4.9
443.15 K	1174.5 ± 4.8
453.15 K	1165.7 ± 4.8
463.15 K	1156.8 ± 4.8
473.15 K	1147.8 ± 4.7

CCCCCCCCCCCCn1cc[n+](C)c1.O=S(=O)([N-]S(=O)(=O)C(F)(F)F)C(F)(F)F
Conditions	mass density [kg/m3]	surface tension liquid-gas [mN/m]
293.15 K	1249.6 ± 5	–
303.15 K	1240.9 ± 5	–
313.15 K	1232.4 ± 4.9	–
323.15 K	1224 ± 4.9	–
333.15 K	1215.6 ± 4.9	–
333.3 K	–	26.4 ± 1
343.15 K	1207.4 ± 4.8	–
353.15 K	1199.2 ± 4.8	–
353.6 K	–	25.4 ± 1
363.15 K	1190.9 ± 4.8	–
373.15 K	1182.8 ± 4.7	–
373.7 K	–	24.5 ± 1
383.15 K	1174.7 ± 4.7	–
393.15 K	1166.2 ± 4.7	–
393.6 K	–	23.6 ± 1
403.15 K	1158.4 ± 4.6	–
413.15 K	1150.2 ± 4.6	–
413.7 K	–	22.5 ± 1
423.15 K	1142 ± 4.6	–
433.15 K	1133.7 ± 4.5	–
433.6 K	–	21.4 ± 1
453.8 K	–	20.4 ± 1
473.7 K	–	19.5 ± 1
493.3 K	–	18.8 ± 1
512.9 K	–	17.8 ± 1
532.6 K	–	16.9 ± 1

CCCC[n+]1ccn(C)c1.O=S(=O)([N-]S(=O)(=O)C(F)(F)F)C(F)(F)F
Conditions	mass density [kg/m3]	surface tension liquid-gas
293.15 K	1442.3 ± 5.8	–
303.15 K	1432.8 ± 5.8	–
312.6 K	–	31.9 ± 1.1 mN/m
313.15 K	1423.4 ± 5.7	–
313.3 K	–	31.9 ± 1.1 mN/m and 30.4 ± 1.1 mN/m
323.15 K	1414.1 ± 5.7	–
332.6 K	–	30.8 ± 1.1 mN/m
333.1 K	–	31.2 ± 1.1 mN/m
333.15 K	1404.8 ± 5.6	–
333.5 K	–	29.7 ± 1.3 mN/m
343.15 K	1395.6 ± 5.6	–
352.6 K	–	30.2 ± 1.1 mN/m
353.15 K	1386.3 ± 5.6	–
353.6 K	–	28.8 ± 1.1 mN/m
353.7 K	–	30.1 ± 1.1 mN/m
363.15 K	1377.1 ± 5.5	–
372.7 K	–	27.9 ± 1 mN/m
373.15 K	1367.9 ± 5.5	–
373.6 K	–	28.1 ± 1.1 mN/m
374.1 K	–	29.2 ± 1.1 mN/m
383.15 K	1358.7 ± 5.5	–
392.7 K	–	26.2 ± 1 mN/m
393.15 K	1349.4 ± 5.4	–
393.6 K	–	25.9 ± 1.1 mN/m
394.2 K	–	28.1 ± 1.3 mN/m
403.15 K	1340.1 ± 5.4	–
412.5 K	–	26 ± 1 mN/m
413.15 K	1330.7 ± 5.3	–
413.6 K	–	25.6 ± 1 mN/m
414.4 K	–	27.2 ± 1.1 mN/m
423.15 K	1321.2 ± 5.3	–
432.5 K	–	25.6 ± 1 mN/m
432.6 K	–	24.9 ± 1.1 mN/m
433.15 K	1311.6 ± 5.3	–
434.5 K	–	26.6 ± 1.1 mN/m
443.15 K	1301.9 ± 5.2	–
452.2 K	–	24.4 ± 1 mN/m and 24.2 ± 1 mN/m
453.15 K	1292.1 ± 5.2	–
455 K	–	25.8 ± 1 mN/m
463.15 K	1282.2 ± 5.1	–
472 K	–	23.3 ± 1 mN/m
473 K	–	23.7 ± 1 mN/m
473.15 K	1272 ± 5.1	–
475.2 K	–	24.6 ± 1 mN/m

CCCCCCCCCCn1cc[n+](C)c1.O=S(=O)([N-]S(=O)(=O)C(F)(F)F)C(F)(F)F
Conditions	mass density [kg/m3]	surface tension liquid-gas
293.15 K	1284.9 ± 5.2	–
303.15 K	1276 ± 5.1	–
313.15 K	1267.4 ± 5.1	–
313.2 K	–	28.7 ± 1.1 mN/m
313.3 K	–	29.1 ± 1.1 mN/m
314.1 K	–	27.7 ± 1.1 mN/m
323.15 K	1258.8 ± 5.1	–
333 K	–	26.7 ± 1.1 mN/m
333.15 K	1250.3 ± 5	–
333.3 K	–	27 ± 1.1 mN/m
333.6 K	–	28.1 ± 1.1 mN/m
343.15 K	1241.8 ± 5	–
352.7 K	–	27 ± 1.2 mN/m
353.15 K	1233.5 ± 4.9	–
353.2 K	–	25.4 ± 1.2 mN/m
353.3 K	–	25.3 ± 1.2 mN/m
363.15 K	1225.1 ± 4.9	–
372.6 K	–	26.3 ± 1.2 mN/m
373.15 K	1216.7 ± 4.9	–
373.3 K	–	24.3 ± 1.2 mN/m
373.4 K	–	24.5 ± 1.1 mN/m
383.15 K	1208.4 ± 4.8	–
392.4 K	–	24.9 ± 1.1 mN/m and 24.6 ± 1.1 mN/m
393.15 K	1200 ± 4.8	–
393.3 K	–	23.5 ± 1.1 mN/m
403.15 K	1191.7 ± 4.8	–
412.3 K	–	23.5 ± 1.1 mN/m
412.5 K	–	23.6 ± 1.1 mN/m
413.15 K	1183.3 ± 4.7	–
413.5 K	–	22.4 ± 1.1 mN/m
423.15 K	1174.8 ± 4.7	–
432.2 K	–	22.9 ± 1 mN/m
433 K	–	22.2 ± 1.1 mN/m
433.15 K	1166.4 ± 4.7	–
433.3 K	–	21.5 ± 1.1 mN/m
443.15 K	1157.8 ± 4.6	–
452.8 K	–	22.2 ± 1.4 mN/m
452.9 K	–	21.2 ± 1.2 mN/m
453.15 K	1148.9 ± 4.6	–
453.2 K	–	20.4 ± 1.4 mN/m
463.15 K	1140.2 ± 4.6	–
472.7 K	–	21.1 ± 1.2 mN/m
472.8 K	–	19.1 ± 1 mN/m
473.15 K	1131.4 ± 4.5	–
473.3 K	–	19.3 ± 1.2 mN/m
492.5 K	–	20.1 ± 1.2 mN/m
493.1 K	–	18.5 ± 1.2 mN/m
513.8 K	–	17.5 ± 1 mN/m
533.2 K	–	16.9 ± 1 mN/m
